Measurements as given in paper PMC10970923, “In Vitro Evaluation of Essential Oils and Saturated Fatty Acids for Repellency against the Old-World Sand Fly, Phlebotomus papatasi (Scopoli) (Diptera: Psychodidae)” (Insects, 2024).
Where two headings read alike, the source gives them in different places.

Biological target: T1, rPpAChE1 (recombinant acetylcholinesterase of P. papatasi) (Phlebotomus papatasi, UniProt M1F887)
T1 construct: gene AChE
Assay: residual AChE activity from initial velocities
Type: biochemical
Source text: residual AChE activity from initial velocities on rPpAChE1 (recombinant acetylcholinesterase of P. papatasi)

T1 sequence (M1F887 41-710): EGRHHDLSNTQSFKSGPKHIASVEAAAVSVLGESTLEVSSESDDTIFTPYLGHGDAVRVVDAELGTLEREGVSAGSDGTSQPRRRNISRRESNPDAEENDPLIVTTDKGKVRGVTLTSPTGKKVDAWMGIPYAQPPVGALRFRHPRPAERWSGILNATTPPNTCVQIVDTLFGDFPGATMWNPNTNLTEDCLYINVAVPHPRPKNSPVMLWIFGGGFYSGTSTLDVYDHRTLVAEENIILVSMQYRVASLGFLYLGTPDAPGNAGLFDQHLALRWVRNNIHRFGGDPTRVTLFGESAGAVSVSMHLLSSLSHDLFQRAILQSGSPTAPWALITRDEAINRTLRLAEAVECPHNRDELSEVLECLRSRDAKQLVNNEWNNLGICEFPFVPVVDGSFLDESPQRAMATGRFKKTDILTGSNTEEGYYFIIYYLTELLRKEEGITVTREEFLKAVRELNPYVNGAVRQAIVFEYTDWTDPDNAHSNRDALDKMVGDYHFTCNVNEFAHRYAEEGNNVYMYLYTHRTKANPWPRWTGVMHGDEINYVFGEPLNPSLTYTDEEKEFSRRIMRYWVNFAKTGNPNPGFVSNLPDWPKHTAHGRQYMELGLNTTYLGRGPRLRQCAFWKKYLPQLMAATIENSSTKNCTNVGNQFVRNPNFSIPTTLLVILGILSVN

In the case of `CCCCN(CCC(=O)OCC)C(C)=O` [IR3535], the remaining activity at 1000 µM (read-out: % Residual rPpAChE1 Activity (Compared to No Inhibitor) ± Std. Dev. ^* / IR3535) is reported as 104 ± 5%.
For `CCCCCCCCC(=O)O` [Nonanoic acid], the remaining activity at 1000 µM (read-out: % Residual rPpAChE1 Activity (Compared to No Inhibitor) ± Std. Dev. ^* / Nonanoic Acid) was 96 ± 2.3%.
Compound `CCCCCCCCCCC(=O)O` [Undecanoic acid] has a remaining activity at 1000 µM (read-out: % Residual rPpAChE1 Activity (Compared to No Inhibitor) ± Std. Dev. ^* / Undecanoic Acid) of 98.2 ± 0.4%.
For `CCN(CC)C(=O)c1cccc(C)c1` [DEET, N,N-diethyl-m-toluamide], the remaining activity at 1000 µM (read-out: % Residual rPpAChE1 Activity (Compared to No Inhibitor) ± Std. Dev. ^* / DEET) was 93.2 ± 1.4%.
